# Key:
# MKN-45 cells = assay: Inhibition of MKN-45 proliferation (MTT); format: cell-based, human; conditions: for inhibition at 0.1 µM / inhibition at 1 µM / GI50: Homo sapiens, MKN-45, MKN-45 proliferation
# Procedure, shortened: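 Viability measured by MTT dye reduction on day 5 after compound addition on day 2 to MKN-45 gastric adenocarcinoma cells (high Met expression) seeded on day 1 in complete medium.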
Structure (SMILES),inhibition at 0.1 µM (MKN-45 cells; 0.1 μM) [%],inhibition at 1 µM (MKN-45 cells; 1 μM) [%],melting point [°C],"Inhibition (% Inhibition of MKN-45 proliferation) (MKN-45 cells; MKN-45 proliferation, 0.1 μM)","% inhibition @ 1 uM (MKN-45 cells; MKN-45 proliferation, 1 μM)",GI50 (MKN-45 cells) [µM]
"O=C(NC1CCC1)c1ccc(-c2ccc3nnn(Cc4ccc5ncccc5c4)c3n2)cc1F [Ex 104, N-Cyclobutyl-2-fluoro-4-(3-(quinolin-6-ylmethyl)-3H-[1,2,3]triazolo[4,5-b]pyridin-5-yl)benzamide]",50 to 75,75 to 100,171 to 174,,,
"CCCNC(=O)c1ccc(-c2ccc3nnn(C(C)(C)c4ccc5ncccc5c4)c3n2)cc1F [Ex 105, 2-Fluoro-N-propyl-4-(3-(2-(quinolin-6-yl)propan-2-yl)-3H-[1,2,3]triazolo[4,5-b]pyridin-5-yl)benzamide]",< 25,< 25,162 to 164,,,
"CC(C)(c1ccc2ncccc2c1)n1nnc2ccc(-c3ccc(C(=O)NC4CC4)c(F)c3)nc21 [Ex 106, N-Cyclopropyl-2-fluoro-4-(3-(2-(quinolin-6-yl)propan-2-yl)-3H-[1,2,3]triazolo[4,5-b]pyridin-5-yl)benzamide]",< 25,75 to 100,156 to 159,,,
"CCNC(=O)c1ccc(-c2ccc3nnn(C(C)(C)c4ccc5ncccc5c4)c3n2)cc1F [Ex 107, N-Ethyl-2-fluoro-4-(3-(2-(quinolin-6-yl)propan-2-yl)-3H-[1,2,3]triazolo[4,5-b]pyridin-5-yl)benzamide]",< 25,,132 to 135,,,
"CNC(=O)c1ccc(-c2ccc3nnn(Cc4ccc5ncccc5c4)c3n2)cc1Cl [Ex 109, 2-Chloro-N-methyl-4-(3-(quinolin-6-ylmethyl)-3H-[1,2,3]triazolo[4,5-b]pyridin-5-yl)benzamide]",75 to 100,,227 to 230,,,
"CONC(=O)c1ccc(-c2ccc3nnn(Cc4ccc5ncccc5c4)c3n2)cc1F.Cl [Ex 110, 2-Fluoro-N-methoxy-4-(3-(quinolin-6-ylmethyl)-3H-[1,2,3]triazolo[4,5-b]pyridin-5-yl)benzamide hydrochloride]",,,145 to 147,B (B = ≥50-<75%),B (B = ≥50-<75%),
"O=C(Nc1nccs1)c1ccc(-c2ccc3nnn(Cc4ccc5ncccc5c4)c3n2)cc1F [Ex 111, 2-Fluoro-4-(3-(quinolin-6-ylmethyl)-3H-[1,2,3]triazolo[4,5-b]pyridin-5-yl)-N-(thiazol-2-yl)benzamide]",< 25,75 to 100,204 to 206,,,
"O=C(NCCC(=O)N1CCCC1)c1ccc(-c2ccc3nnn(Cc4ccc5ncccc5c4)c3n2)cc1F [Ex 114, 2-Fluoro-N-(3-oxo-3-(pyrrolidin-1-yl)propyl)-4-(3-(quinolin-6-ylmethyl)-3H-[1,2,3]triazolo[4,5-b]pyridin-5-yl)benzamide]",50 to 75,50 to 75,151 to 153,,,
"O=C(NO)c1ccc(-c2ccc3nnn(Cc4ccc5ncccc5c4)c3n2)cc1F [Ex 115, 2-Fluoro-N-hydroxy-4-(3-(quinolin-6-ylmethyl)-3H-[1,2,3]triazolo[4,5-b]pyridin-5-yl)benzamide]",< 25,75 to 100,180 to 182,,,
"CC(C)NC(=O)c1ccc(-c2ccc3nnn(Cc4ccc5ncccc5c4)c3n2)cc1 [Ex 116, N-Isopropyl-4-(3-(quinolin-6-ylmethyl)-3H-[1,2,3]triazolo[4,5-b]pyridin-5-yl)benzamide]",< 25,75 to 100,181 to 183,,,
"O=C(NCCC(=O)N1CCCCC1)c1ccc(-c2ccc3nnn(Cc4ccc5ncccc5c4)c3n2)cc1F [Ex 117, 2-Fluoro-N-(3-oxo-3-(piperidin-1-yl)propyl)-4-(3-(quinolin-6-ylmethyl)-3H-[1,2,3]triazolo[4,5-b]pyridin-5-yl)benzamide]",50 to 75,75 to 100,109 to 111,,,
"CCNC(=O)Nc1ccc(-c2ccc3nnn(Cc4ccc5ncccc5c4)c3n2)cc1 [Ex 118, 1-Ethyl-3-(4-(3-(quinolin-6-ylmethyl)-3H-[1,2,3]triazolo[4,5-b]pyridin-5-yl)phenyl)urea]",< 25,75 to 100,193 to 196,,,
"O=C(NCCC(=O)N1CCOCC1)c1ccc(-c2ccc3nnn(Cc4ccc5ncccc5c4)c3n2)cc1F [Ex 120, 2-Fluoro-N-(3-morpholino-3-oxopropyl)-4-(3-(quinolin-6-ylmethyl)-3H-[1,2,3]triazolo[4,5-b]pyridin-5-yl)benzamide]",75 to 100,25 to 50,212 to 215,,,
"O=C(Nc1nc[nH]n1)c1ccc(-c2ccc3nnn(Cc4ccc5ncccc5c4)c3n2)cc1Cl [Ex 122, 2-chloro-4-(3-(quinolin-6-ylmethyl)-3H-[1,2,3]triazolo[4,5-b]pyridin-5-yl)-N-(1H-1,2,4-triazol-3-yl)benzamide]",< 25,< 25,286 to 288,,,
"O=C(NCCCN1CCCCC1)c1ccc(-c2ccc3nnn(Cc4ccc5ncccc5c4)c3n2)cc1F [Ex 124, 2-Fluoro-N-(3-(piperidin-1-yl)propyl)-4-(3-(quinolin-6-ylmethyl)-3H-[1,2,3]triazolo[4,5-b]pyridin-5-yl)benzamide]",75 to 100,50 to 75,135 to 137,,,
"c1cnc2ccc(Cn3cnc4ccc(-c5cn[nH]c5)nc43)cc2c1 [Ex 147, 6-((5-(1H-Pyrazol-4-yl)-3H-imidazo[4,5-b]pyridin-3-yl)methyl)quinoline]",,< 25,214 to 216,,,
"Cn1cc(-c2ccc3ncn(Cc4ccc5ncccc5c4)c3n2)cn1 [Ex 148, 6-((5-(1-Methyl-1H-pyrazol-4-yl)-3H-imidazo[4,5-b]pyridin-3-yl)methyl)quinoline]",,< 25,150 to 152,,,
"OCCn1cc(-c2ccc3ncn(Cc4ccc5ncccc5c4)c3n2)cn1 [Ex 150, 2-(4-(3-(Quinolin-6-ylmethyl)-3H-imidazo[4,5-b]pyridin-5-yl)-1H-pyrazol-1-yl)ethanol]",,< 25,160 to 163,,,
"OCCNc1ccc2nnn(Cc3ccc4ncccc4c3)c2n1 [Ex 151, 2-(3-(Quinolin-6-ylmethyl)-3H-[1,2,3]triazolo[4,5-b]pyridin-5-ylamino)ethanol]",,50 to 75,184 to 186,,,
"c1cnc2ccc(Cn3nnc4ccc(-n5ccnc5)nc43)cc2c1 [Ex 152, 6-((5-(1H-Imidazol-1-yl)-3H-[1,2,3]triazolo[4,5-b]pyridin-3-yl)methyl)quinoline]",,,227 to 230,,,0.15 to 0.5
"c1cnc2ccc(Cn3nnc4ccc(-c5cnn(C6CCNCC6)c5)nc43)cc2c1 [Ex 157, 6-((5-(1-(Piperidin-4-yl)-1H-pyrazol-4-yl)-3H-[1,2,3]triazolo[4,5-b]pyridin-3-yl)methyl)quinoline]",,,188 to 191,,,< 1
"Cl.Fc1ccc(F)c(Cn2nnc3ccc(-c4cnn(C5CCNCC5)c4)nc32)c1Cl [Ex 167, 3-(2-Chloro-3,6-difluorobenzyl)-5-(1-(piperidin-4-yl)-1H-pyrazol-4-yl)-3H-[1,2,3]triazolo[4,5-b]pyridine hydrochloride]",,25 to 50,85 to 87,,,
"Nc1ncc(-c2ccc3nnn(Cc4ccc5ncccc5c4)c3n2)cn1 [Ex 180, 5-(3-(Quinolin-6-ylmethyl)-3H-[1,2,3]triazolo[4,5-b]pyridin-5-yl)pyrimidin-2-amine]",< 25,25 to 50,244 to 246,,,
"O=Cc1cc(-c2ccc3nnn(Cc4ccc5ncccc5c4)c3n2)cs1 [Ex 182, 4-(3-(Quinolin-6-ylmethyl)-3H-[1,2,3]triazolo[4,5-b]pyridin-5-yl)thiophene-2-carbaldehyde]",< 25,25 to 50,195 to 197,,,
"COc1ncc(-c2ccc3nnn(Cc4ccc5ncccc5c4)c3n2)cn1 [Ex 183, 6-((5-(2-Methoxypyrimidin-5-yl)-3H-[1,2,3]triazolo[4,5-b]pyridin-3-yl)methyl)quinoline]",< 25,,201 to 203,,,
"c1cnc2ccc(Cn3nnc4ccc(-c5ccc6c(c5)OCO6)nc43)cc2c1 [Ex 184, 6-((5-(Benzo[d][1,3]dioxol-5-yl)-3H-[1,2,3]triazolo[4,5-b]pyridin-3-yl)methyl)quinoline]",< 25,< 25,179 to 181,,,
"c1cnc2ccc(Cn3nnc4ccc(-c5ccc6c(c5)CCO6)nc43)cc2c1 [Ex 185, 6-((5-(2,3-Dihydrobenzofuran-5-yl)-3H-[1,2,3]triazolo[4,5-b]pyridin-3-yl)methyl) quinoline]",< 25,< 25,131 to 133,,,
"Nc1ccc(-c2ccc3nnn(Cc4ccc5ncccc5c4)c3n2)cn1 [Ex 186, 5-(3-(Quinolin-6-ylmethyl)-3H-[1,2,3]triazolo[4,5-b]pyridin-5-yl)pyridin-2-amine]",< 25,< 25,194 to 197,,,
"FCCn1cc(-c2ccc3nnn(Cc4ccc5ncccc5c4)c3n2)cn1 [Ex 187, 6-((5-(1-(2-fluoroethyl)-1H-pyrazol-4-yl)-3H-[1,2,3]triazolo[4,5-b]pyridin-3-yl)methyl)quinoline]",75 to 100,,168 to 170,,,≤ 0.05
"OCc1cc(-c2ccc3nnn(Cc4ccc5ncccc5c4)c3n2)cs1 [Ex 188, (4-(3-(Quinolin-6-ylmethyl)-3H-[1,2,3]triazolo[4,5-b]pyridin-5-yl)thiophen-2-yl) methanol]",75 to 100,,188 to 191,,,0.05 to 0.15

# — patent US10590129B2 (Incozen Therapeutics Pvt. Ltd., priority 2010, dated 2020)
